Source: ChEMBL document CHEMBL2401674, “Inhibition of Candida albicans isocitrate lyase activity by cadiolides and synoilides from the ascidian Synoicum sp” (Bioorg Med Chem Lett, 2013)
Activity calls are given as the source filed them. The rule behind the calls is not given here.

Columns and labels:
Candida albicans [1] = assay: Antifungal activity against Candida albicans SC5314 assessed as growth inhibition after 48 hrs in presence of 2% glucose; type: functional; settings: SC5314, 48 h
Candida albicans [2] = assay: Antifungal activity against Candida albicans SC5314 assessed as growth inhibition after 48 hrs in presence of 2% potassium acetate; type: functional; settings: SC5314, 48 h
Isocitrate lyase = Isocitrate lyase (Candida albicans, UniProt Q9P8Q7); assay: Inhibition of recombinant Candida albicans ATCC 10231 ICL using phenylhydrazine and isocitrate as substrate assessed as formation of glyoxylate phenylhydrazone after 30 mins by spectrophotometric analysis
Chain of Isocitrate lyase (Q9P8Q7 whole entry): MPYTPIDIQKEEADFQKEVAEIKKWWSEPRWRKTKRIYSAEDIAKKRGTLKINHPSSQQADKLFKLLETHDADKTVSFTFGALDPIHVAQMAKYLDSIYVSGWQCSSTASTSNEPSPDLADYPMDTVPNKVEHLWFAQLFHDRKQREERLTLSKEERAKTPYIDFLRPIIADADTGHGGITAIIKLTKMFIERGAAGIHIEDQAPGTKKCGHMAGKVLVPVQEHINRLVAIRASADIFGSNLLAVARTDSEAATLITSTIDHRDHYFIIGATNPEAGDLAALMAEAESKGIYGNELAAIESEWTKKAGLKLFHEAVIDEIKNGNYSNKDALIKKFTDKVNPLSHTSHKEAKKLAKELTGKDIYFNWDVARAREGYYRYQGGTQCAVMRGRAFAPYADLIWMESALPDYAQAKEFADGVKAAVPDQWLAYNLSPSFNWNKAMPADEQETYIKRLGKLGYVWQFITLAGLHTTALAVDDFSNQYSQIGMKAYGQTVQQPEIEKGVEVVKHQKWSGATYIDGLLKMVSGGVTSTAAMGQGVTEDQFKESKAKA

Candida albicans [3] = assay: Antifungal activity against icl-deficient Candida albicans MRC11 expressing ICL assessed as growth inhibition at 12.5 ug/ml after 3 days in presence of glucose; type: functional, organism-based
Candida albicans [4] = assay: Antifungal activity against icl-deficient Candida albicans MRC10 assessed as growth inhibition at 12.5 ug/ml after 3 days in presence of sodium acetate; type: functional, organism-based
Candida albicans [5] = assay: Antifungal activity against wild type Candida albicans SC5314 assessed as growth inhibition at 12.5 ug/ml after 3 days in presence of sodium acetate; type: functional, organism-based
Candida albicans [6] = assay: Antifungal activity against wild type Candida albicans SC5314 assessed as growth inhibition at 12.5 ug/ml after 3 days in presence of glucose; type: functional, organism-based
Candida albicans [7] = assay: Antifungal activity against icl-deficient Candida albicans MRC11 expressing ICL assessed as growth inhibition at 12.5 ug/ml after 3 days in presence of sodium acetate; type: functional, organism-based
Candida albicans [8] = assay: Downregulation of mRNA expression in wild type Candida albicans SC5314 at 12.5 ug/ml after 4 hrs by RT-PCR analysis relative to control; type: functional
Candida albicans [9] = assay: Downregulation of mRNA expression in icl-deficient Candida albicans MRC11 expressing ICL at 12.5 ug/ml after 4 hrs by RT-PCR analysis relative to control; type: functional
Candida albicans [10] = assay: Antifungal activity against icl-deficient Candida albicans MRC10 assessed as growth inhibition at 12.5 ug/ml after 3 days in presence of glucose; type: functional, organism-based

Row | Structure (SMILES) | MIC (Candida albicans [1]) [µg/mL] | MIC (Candida albicans [2]) [µg/mL] | IC50 (Isocitrate lyase) [µM] | growth inhibition (GI) (Candida albicans [3]) | growth inhibition (GI) (Candida albicans [4]) | growth inhibition (GI) (Candida albicans [5]) | growth inhibition (GI) (Candida albicans [6]) | growth inhibition (GI) (Candida albicans [7]) | fold change (FC) (Candida albicans [8]) | fold change (FC) (Candida albicans [9]) | growth inhibition (GI) (Candida albicans [10])
1 | C[C@@H]1[C@H](O)[C@@H](C)/C=C/C=C/C=C/C=C/C=C/C=C/C=C/[C@H](O[C@@H]2O[C@H](C)[C@@H](O)[C@H](N)[C@@H]2O)C[C@@H]2O[C@](O)(C[C@@H](O)C[C@@H](O)[C@H](O)CC[C@@H](O)C[C@@H](O)CC(=O)O[C@H]1C)C[C@H](O)[C@H]2C(=O)O [AMPHOTERICIN B] | 1.56 | 1.56 | – | – | – | – | – | – | – | – | –
2 | COc1c(Br)cc([C@H](O)C2=C(c3ccc(O)c(Br)c3)/C(=C/c3ccc(O)c(Br)c3)OC2=O)cc1Br [CADIOLIDE G] | > 200 | 50 | 48.8 | – | – | – | – | – | – | – | –
3 | COC(=O)/C(C(=O)c1cc(Br)c(O)c(Br)c1)=C(\C(=O)OC)c1ccc(O)c(Br)c1 | > 200 | 100 | 122 | – | – | – | – | – | – | – | –
4 | O=C(O)CC[N+](=O)[O-] | > 200 | 200 | 13.9 | – | – | – | – | – | – | – | –
5 | COC(=O)/C(C(=O)c1cc(Br)c(O)c(Br)c1)=C(\C(=O)OC)c1cc(Br)c(O)c(Br)c1 | > 200 | 100 | 75.2 | – | – | – | – | – | – | – | –
6 | COc1ccc(/C=C2\OC(=O)C([C@@H](O)c3cc(Br)c(OC)c(Br)c3)=C2c2cc(Br)c(O)c(Br)c2)cc1 | > 200 | 50 | 17.2 | – | – | – | – | – | – | – | –
7 | O=C1O/C(=C\c2cc(Br)c(O)c(Br)c2)C(c2ccc(O)c(Br)c2)=C1C(=O)c1cc(Br)c(O)c(Br)c1 [CADIOLIDE E] | > 200 | 12.5 | 7.62 | inactive | Active | Active | inactive | Active | 5 | 5 | inactive
8 | COC(=O)C1=C(c2cc(Br)c(O)c(Br)c2)C(=O)OC1=C(c1cc(Br)c(O)c(Br)c1)c1cc(Br)c(O)c(Br)c1 [CADIOLIDE I] | > 200 | 50 | 10.4 | – | – | – | – | – | – | – | –
